In data set [1] the test system is Escherichia coli. Nature of the data set: Antimicrobial activity against multi-drug resistant Escherichia coli assessed as reduction in bacterial growth by broth dilution method. It is filed as functional. Background: In broth dilution the organism is exposed to a series of concentrations in liquid medium.
Data set [2] has as its system Enterococcus faecalis. Kind of data set: Antimicrobial activity against multi-drug resistant Enterococcus faecalis assessed as reduction in bacterial growth by broth dilution method. It is filed as functional.
Data set [3] can be described thus: Hemolytic activity in human Red blood cell assessed as hemolysis incubated for 1 hrs by microplate reader based analysis. The format is toxicity. Conditions: erythrocyte.
Data set [4] relates to Acinetobacter baumannii. Kind of data set: Antimicrobial activity against multi-drug resistant Acinetobacter baumannii assessed as reduction in bacterial growth by broth dilution method. It is filed as functional.
Data set [5] concerns Staphylococcus epidermidis. Kind of data set: Antimicrobial activity against multi-drug resistant Staphylococcus epidermidis assessed as reduction in bacterial growth by broth dilution method. The format is functional.
For data set [6], the system named is Klebsiella pneumoniae. Nature of the data set: Antimicrobial activity against multi-drug resistant Klebsiella pneumoniae assessed as reduction in bacterial growth by broth dilution method. The format is functional.
Data set [7] concerns Escherichia coli. Kind of data set: Antimicrobial activity against Escherichia coli ATCC 25922 assessed as reduction in bacterial growth by broth dilution method. It is filed as functional.
The subject of data set [8] is Staphylococcus aureus. Kind of data set: Antimicrobial activity against Staphylococcus aureus ATCC 25923 assessed as reduction in bacterial growth by broth dilution method. It is filed as functional.
For data set [9], the system named is Staphylococcus aureus. Nature of the data set: Antimicrobial activity against multi-drug resistant Staphylococcus aureus assessed as reduction in bacterial growth by broth dilution method. It is filed as functional.

Values after ≈ are worked out from the molar mass of the structure shown. Bridge positions count the residues as written; N and C are the ends. Square brackets hold non-standard residues; d marks the D form. Peptide text beside a SMILES is read from it. * marks the point of attachment. X1 = CC[C@H](C)CCCCC(=O)*; Dab = NCC[C@H](N)C(=O)O

The term MIC denotes the least concentration at which growth counts as inhibited. Take `CC[C@H](C)[C@H](N)C(=O)N[C@@H](CCCCN)C(=O)N[C@H](C(=O)N[C@@H](CCCCN)C(=O)N[C@@H](Cc1ccccc1)C(=O)N1CCC[C@H]1C(=O)N[C@@H](Cc1c[nH]c2ccccc12)C(=O)N[C@@H](Cc1c[nH]c2ccccc12)C(=O)N[C@@H](Cc1c[nH]c2ccccc12)C(=O)N1CCC[C@H]1C(=O)N[C@@H](Cc1ccccc1)C(=O)N[C@@H](CCCCN)C(=O)N[C@H](C(=O)N[C@@H](CCCCN)C(=O)N[C@H](C(N)=O)[C@@H](C)CC)[C@@H](C)CC)[C@@H](C)CC` (H-IKIKFPWWWPFKIKI-NH2): the minimum inhibitory concentration (MIC) worked out at 32 µM (≈ 64.9 µg/mL) in data set [1]; 16 µM (≈ 32.5 µg/mL) in data set [2]; 16 µM (≈ 32.5 µg/mL) in data set [4]; 16 µM (≈ 32.5 µg/mL) in data set [5]; 256 µM (≈ 520 µg/mL) in data set [6]; 16 µM (≈ 32.5 µg/mL) in [7]. For the same compound, the MIC in data set [8] and in data set [9] was 16 µM (≈ 32.5 µg/mL) in each case. For the same compound, in data set [3], the HC10 is 9.48 µM.
As for `CC[C@H](C)[C@H](N)C(=O)N[C@@H](CCCCN)C(=O)N[C@H](C(=O)N[C@@H](CCCCN)C(=O)N[C@H](C(=O)N[C@@H](CCCCN)C(=O)N[C@@H](Cc1ccccc1)C(=O)N1CCC[C@H]1C(=O)N[C@@H](Cc1c[nH]c2ccccc12)C(=O)N[C@@H](Cc1c[nH]c2ccccc12)C(=O)N[C@@H](Cc1c[nH]c2ccccc12)C(=O)N1CCC[C@H]1C(=O)N[C@@H](Cc1ccccc1)C(=O)N[C@@H](CCCCN)C(=O)N[C@H](C(=O)N[C@@H](CCCCN)C(=O)N[C@H](C(=O)N[C@@H](CCCCN)C(=O)N[C@H](C(N)=O)[C@@H](C)CC)[C@@H](C)CC)[C@@H](C)CC)[C@@H](C)CC)[C@@H](C)CC` (H-IKIKIKFPWWWPFKIKIKI-NH2), the MIC in data set [1] was 128 µM (≈ 322 µg/mL); in [2], 128 µM (≈ 322 µg/mL); in data set [4] it was 128 µM (≈ 322 µg/mL); in data set [5] it was 128 µM (≈ 322 µg/mL); in data set [6], 64 µM (≈ 161 µg/mL); in data set [7] it was 128 µM (≈ 322 µg/mL). Besides, the MIC in [8] came to 128 µM (≈ 322 µg/mL); in data set [9], 64 µM (≈ 161 µg/mL). Further, the HC10 in [3] worked out at 6.56 µM.
Consider `CC[C@H](C)[C@H](N)C(=O)N[C@@H](CCCCN)C(=O)N[C@H](C(=O)N[C@@H](CCCCN)C(=O)N[C@H](C(=O)N[C@@H](CCCCN)C(=O)N1CCC[C@H]1C(=O)N[C@@H](Cc1c[nH]c2ccccc12)C(=O)N[C@@H](Cc1c[nH]c2ccccc12)C(=O)N[C@@H](Cc1c[nH]c2ccccc12)C(=O)N1CCC[C@H]1C(=O)N[C@@H](CCCCN)C(=O)N[C@H](C(=O)N[C@@H](CCCCN)C(=O)N[C@H](C(=O)N[C@@H](CCCCN)C(=O)N[C@H](C(N)=O)[C@@H](C)CC)[C@@H](C)CC)[C@@H](C)CC)[C@@H](C)CC)[C@@H](C)CC` (H-IKIKIKPWWWPKIKIKI-NH2), for which the MIC in data set [1] came out at 64 µM (≈ 142 µg/mL); in [2], 2 µM (≈ 4.44 µg/mL); in data set [4], 64 µM (≈ 142 µg/mL); in [5], 2 µM (≈ 4.44 µg/mL); in [6], 64 µM (≈ 142 µg/mL); in [7], 64 µM (≈ 142 µg/mL). Moreover, the minimal inhibitory concentration (MIC) in data set [8] was 4 µM (≈ 8.87 µg/mL); in data set [9], 8 µM (≈ 17.7 µg/mL). For the same compound, the HC10 in data set [3] was 116.64 µM.
In the case of `CC(C)CCCCC(=O)N[C@@H](CCN)C(=O)N[C@H](C(=O)N[C@@H](CCN)C(=O)N[C@H]1CCNC(=O)[C@H]([C@@H](C)O)NC(=O)[C@H](CCN)NC(=O)[C@H](CCN)NC(=O)[C@H](CC(C)C)NC(=O)[C@@H](Cc2ccccc2)NC(=O)[C@H](CCN)NC1=O)[C@@H](C)O.CC[C@H](C)CCCCC(=O)N[C@@H](CCN)C(=O)N[C@H](C(=O)N[C@@H](CCN)C(=O)N[C@H]1CCNC(=O)[C@H]([C@@H](C)O)NC(=O)[C@H](CCN)NC(=O)[C@H](CCN)NC(=O)[C@H](CC(C)C)NC(=O)[C@@H](Cc2ccccc2)NC(=O)[C@H](CCN)NC1=O)[C@@H](C)O` (X1-[Dab]T[Dab][Dab][Dab][dF]L[Dab][Dab]T; lactam 4-C), the minimum inhibitory concentration (MIC) in [1] was 2 µM; in data set [2], 128 µM; in data set [4], 2 µM; in data set [5] it was 16 µM; in data set [6], 2 µM; in [7], 2 µM. The MIC in data set [8] and in data set [9] was 16 µM each time.

Source of the values: ChEMBL document CHEMBL6134890, “Terminally Symmetric β-Turn Peptides for Multidrug-Resistant Bacterial Infections” (J Med Chem, 2025).
